# Experimental data from patent US20080299076A1, “Compunds and compositions that cause non-apoptotic cell death and uses thereof” (priority 2006, published 2008).
# What was measured:
# [1] = target: T1, VDAC2 (Homo sapiens, UniProt P45880); assay: VDAC2 binding assay (competition with radiolabelled erastin A9); settings: competition with tritium-labeled erastin A9
# T1 construct: hexahistidine (pET-15b, thrombin site) (N); made in house; host or cells: E. coli
# T1 sequence (P45880 1-294): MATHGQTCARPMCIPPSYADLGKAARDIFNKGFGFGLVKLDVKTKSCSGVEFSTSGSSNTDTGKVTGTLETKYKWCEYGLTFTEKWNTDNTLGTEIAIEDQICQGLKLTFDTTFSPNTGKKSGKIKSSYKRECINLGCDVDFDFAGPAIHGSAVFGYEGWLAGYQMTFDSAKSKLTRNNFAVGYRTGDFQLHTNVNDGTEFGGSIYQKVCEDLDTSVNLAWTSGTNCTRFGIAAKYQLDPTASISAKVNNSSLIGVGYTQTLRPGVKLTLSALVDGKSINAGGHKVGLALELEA
# Method: Given the interactions between erastin and VDAC using affinity-based target identification and VDAC functional assays, the direct binding of erastin to VDACs was investigated.
# VDAC2 protein was isolated from E. coli using a modified version of the protocol originally described by Koppel et al. Bacterial cultures were grown in LB containing 50 mg/L ampicillin to an OD of 0.6, and induced using […] IPTG overnight. Cultures were harvested by centrifugation at 6000×g for 10 min. The pellet was then washed with dH2O and resuspended in buffer (20% sucrose, 20 mM Tris, pH 8.0, […] lysozyme) and incubated at 25° C. for 10 minutes. The lysate was then sonicated for 2×30 seconds and centrifuged at 15000×g for 20 minutes. The pellet was resuspended in resuspension buffer (4.5 M guanidine-HCl, 0.1M NaCl, 20 mM Tris, pH 8.0) and incubated for 1 hour at 25° C. The suspension was then centrifuged (20 minutes, 15000×g), and the supernatant was loaded on a NI-NTA Superflow column (Qiagen) pre-equilibrated with 5 volumes of resuspension buffer. The column was washed with 5 column volumes of resuspension buffer containing 10 mM imidazole. The protein was then eluted using resuspension buffer containing 225 mM imidazole. The eluate was dialysed against 0.1 M NaCl, 20 mM Tris, pH 8.0, and 2% LDAO (Fluka) overnight, and then concentrated via centrifugation to 4 mg/mL.
# To assay direct binding of erastin analogs, 40 μg of purified VDAC2 was resuspended in 100 μL of Binding Buffer (25 mM HEPES, pH 8.0, 0.1% BSA, 7 mM MgCl2, 15 mM NaCl), and incubated in the presence of 20 μM radiolabelled erastin A9 and erastin A9 or erastin A8 for 15 minutes. The mixture was then deposited onto Protran BA85 0.45 μM binding filters (Whatman) using vacuum filtration. The filter was rinsed 5 times with 1 mL wash buffer (25 mM HEPES, 0.1% BSA), and then incubated in 5 mL scintillation liquid (Cytoscint, MP Biomedicals). Radioactivity was detected on a LKB Wallac 1211 RACKBETA Liquid Scintillation Counter.
# [2] = system: BJ-TERT/LT/ST/RAS^V12 cells; assay: Alamar Blue viability assay; type: cell-based, human; settings: BJ-TERT/LT/ST/RAS^V12 cells versus BJ-TERT cells
# Method: (a) Calu-1 lung carcinoma cells harboring oncogenic KRAS were infected with lentivirus containing shRNAs targeting KRAS or GFP. Sequences of shRNAs are indicated by starting nucleotide (nt) in the KRAS mRNA coding sequence. Cells were treated with erastin and viability measured by Trypan Blue exclusion. (b) Knockdown of KRAS was confirmed by western blot. (c,d) A673 cells harboring oncogenic BRAF were infected with lentiviral shRNAs targeting BRAF exon 5 (c) or the 5′ UTR (d), luciferase (LUC) (c) or GFP (d). Cells were treated with erastin and viability measured using Alamar Blue (c) and Trypan Blue (d). (e) Knockdown of BRAF was confirmed by western blot. […] BJ-TERT/LT/ST/RAS^V12 cells were treated with erastin alone or in with a MEK inhibitor U0126 (20 μM), MEK inhibitor I (10 μM) or MEK 1/2 inhibitor (50 μM). After 48 h, viability was determined using Trypan Blue. (g) Structures of certain erastin and related analogs. (h) and (i) Dose-response curves were measured for erastin A3 and erastin B2 in BJ-TERT/LT/ST/RAS^V12 cells (black squares) or BJ-TERT cells (grey circles). (j) Calu-1 lung carcinoma cells harboring oncogenic KRAS were infected with lentivirus containing shRNAs targeting KRAS or GFP. Sequences of shRNAs are indicated by starting nucleotide (nt) in the KRAS mRNA coding sequence. Cells were treated with erastin and viability (y-axis) measured by Trypan Blue exclusion. Cells were treated with erastin for 24 hours, and percent inhibition of viability (y-axis) measured using Alamar Blue (k) and Trypan Blue (l). (m) Structures of erastin and related analogs. (n) Dose-response curves were measured for erastin A6, erastin B2, erastin A8 and erastin A9 in BJ-TERT/LT/ST/RAS^V12 cells (squares) or BJ-TERT cells (circles) using Alamar Blue.
# Alamar Blue metabolism: 10% Alamar Blue was added to assay plates, which were then incubated for an additional 16 hours. Red fluorescence, resulting from reduction of Alamar Blue, was detected on a Victor3 platereader (ex: 530, em: 590).
# Table 2. Activity of RAS-selective lethal compound erastin in tumor cell lines. IC50 values (ng/mL) are shown using the Alamar Blue viability assay. BJ engineered tumor cells express TERT, LT, ST, and oncogenic RAS. Isogenic RAS^V12 lacking cells are identical but lack HRAS^V12. BJ-DRD cells are derived from BJ cells and contain TERT, oncogenic RAS, a truncated from of p53 (p53DD) that disrupts the tetramerization of endogenous p53, a CDK4(R24C) mutant resistant to inhibition by p16INK4A and p151NK4B (the major negative regulators of CDK4) and cyclin D1. These latter protein substitute for LT. HCT-116, A549, Calu-1, and MIA PaCa-2 are tumor cells derived from cancers (colon, lung, lung and pancreatic, respectively) known to have activating mutations in RAS.
# [3] = target: T2, murine VDAC3 (Mus musculus, UniProt Q60931); assay: NADH oxidation assay in mitochondria from yeast expressing VDAC3; type: biochemical; settings: mitochondria from yeast expressing VDAC3 in place of yeast VDAC
# T2 construct: expressed in transfected cells; host or cells: yeast (S. cerevisiae) with murine VDAC3 in place of yeast VDAC; isolated mitochondria
# T2 sequence (Q60931 1-283): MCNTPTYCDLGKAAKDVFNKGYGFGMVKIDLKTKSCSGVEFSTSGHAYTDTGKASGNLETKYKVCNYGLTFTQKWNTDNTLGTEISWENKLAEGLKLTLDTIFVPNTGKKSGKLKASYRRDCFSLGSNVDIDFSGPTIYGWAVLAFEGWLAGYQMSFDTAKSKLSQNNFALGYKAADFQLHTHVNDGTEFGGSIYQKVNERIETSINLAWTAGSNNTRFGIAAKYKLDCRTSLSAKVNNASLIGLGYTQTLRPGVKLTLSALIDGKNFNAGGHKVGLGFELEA
# Method: In certain embodiments, mitochondria can be purified from yeast that had been engineered to express murine or human VDAC3 in place of yeast VDAC.
# Mitochondria were isolated from yeast expressing murine VDAC3 in place of yeast VDAC. The rate of NADH oxidation by an inner membrane NADH dehydrogenase was determined by measuring the change in NADH absorbance over time. Mitochondria with a disrupted outer membrane show an increased rate of NADH oxidation (red, shocked) compared to untreated mitochondria (green).
# NADH oxidation in the mitochondria was measured by resuspending mitochondria isolated from yeast in R-buffer (0.65 M sucrose, 10 mM HEPES (pH 7.5), 10 mM KH2PO4, 5 mM KCl, 5 mM, MgCl2) to a final concentration of 100 μg/ml. Mitochondrial concentration was measured by dissolving mitochondria in 0.6% SDS and reading absorbance at 280 nm. The mitochondrial suspension was then incubated with 25 μM NADH, and the absorbance at 340 nm monitored over a 15 minute period. The assay was repeated in the presence of erastin. To assess mitochondrial intactness, a parallel assay was run in which mitochondria were hypotonically shocked prior to addition of NADH. The mitochondrial pellet was resuspended in dH2O and incubated on ice for 3 minutes to disrupt the outer mitochondrial membrane. 2× R-buffer was then added to restore normal osmotic conditions.
# [4] = system: BJ-TERT/LT/ST/RAS^V12 cells; assay: Cell death, viable cells counted using a hemacytometer; type: cell-based, human; settings: 13 μM erastin A1, 23 μM antimycin, 126 μM 2-methoxyestradiol or the combinations
# [5] = system: BJ-TERT/LT/ST/RAS^V12 cells; assay: Suppression of erastin-induced cell death (suppressor screen and follow-up); type: cell-based, human; settings: co-treatment with erastin
# [6] = system: BJ-TERT/LT/ST/RAS^V12 cells; assay: Annexin V staining; type: cell-based, human; settings: camptothecin 1 μM
# Method: The percentage of cells in the indicated Ml region were 6%, 6%, and 38% in untreated, erastin-treated (9 μM), and camptothecin-treated (1 μM), respectively.
# [7] = system: PARP1; assay: PARP1 cleavage (western blot); type: cell-based, human; settings: BJ-TERT/LT/ST/RAS^V12 cells; staurosporine 1 μM 6 h, camptothecin 1 μM 18 h, erastin 20 μg/mL
# Method: BJ-TERT/LT/ST/RAS^V12 tumor cells were seeded in six-well dishes, incubated overnight at 37° C. with 5% CO2 and were treated with nothing (NT), staurosporine (ST, 1 μM) for 6 h, camptothecin (C, 1 μM) for 18 h, or erastin (20 μg/mL) for the indicated time, lysed and analyzed by western blot with an anti-PARP1 antibody. A relatively high concentration of erastin was used to ensure loss of PARP cleavage was not due to a concentration-dependent effect.
# BJ-TERT/LT/ST/RAS^V12 cells were seeded in polystyrene 100×20 mm dishes (Falcon/#353003) in 10 ml of media. Three million cells were seeded in each dish. After overnight incubation at 37° C. with 5% CO2, BJ-TERT/LT/ST/RAS^V12 cells were treated with nothing, staurosporine (1 μM) for 6 h, camptothecin (1 μM) for 18 h or erastin (20 μg/mL) for 6, 10, 12, 12.5, 13, 14, 18 or 26 h, and prepared for western blotting.
# [8] = system: cytochrome c; assay: Cytochrome c release from mitochondria; type: cell-based, human; settings: BJ-TERT/LT/ST/RAS^V12 cells; staurosporine 1 μM or erastin 20 μg/mL, 6 h
# Method: BJ-TERT/LT/ST/RAS^V12 cells were seeded in polystyrene 100×20 mm dishes in 10 ml media. After overnight incubation at 37° C. with 5% CO2, the cells were treated with nothing (NT), staurosporine (ST, 1 μM) or erastin (20 μg/mL) for 6 h, washed with 10 mL ice-cold PBS and lysed by passage through a 25-gauge needle (five strokes). Cell lysates were centrifuged at 1850 rpm for 5 min at 4° C. to remove the nuclear fraction. Mitochondria were removed from the soluble cytosolic fraction by pelleting at 10,000 rpm. Supernatant and mitochondrial pellets were solubilized in SDS-PAGE loading buffer and analyzed by western blot using anti-cytochrome c and pan-VDAC antibodies and IR-dye-linked secondary antibodies. VDACs are mitochondrial proteins, so their absence in the cytosolic lane indicates effective separation of cytosol (C) from mitochondria (M). Fluorescence was detected on a LI-COR Odyssey infrared scanner.
# For the cytochrome c release assay, cells were washed with 10 mL of ice-cold PBS, suspended in 120 μL of buffer (300 mM sucrose, 0.1% BSA, 10 mM HEPES, pH 7.5, 10 mM KCl, 1.5 mM MgCl2, 1 mM EGTA, 1 mM EDTA, 1 mM dithiothreitol, 2 mM phenylmethanesulfonyl fluoride and 1 protease inhibitor tablet (Roche)) and incubated on ice for 15 min. […] Supernatant and mitochondrial pellets were solubilized in SDS-PAGE loading buffer and analyzed by western blotting.
Compound,Cell death (%) [4] [%],Effect on erastin-induced cell death [5],PARP1 cleavage [7],also measured
"CCOc1ccccc1-n1c(C(C)N2CCN(C(C)=O)CC2)nc2ccccc2c1=O (centres unmarked) [erastin A8, 2-[1-(4-Acetyl-piperazin-1-yl)-ethyl]-3-(2-ethoxy-phenyl)-3H-quinazolin-4-one]",,,,"Direct binding to VDAC2 [1]: unlike the inactive erastin A8, directly binds VDAC2; Selective lethality / activity of erastin analog [2]: inactive; Rate of NADH oxidation / permeability of outer mitochondrial membrane to NADH [3]: had no effect on mitochondrial membrane permeability"
"COc1cc2c(cc1O)CC[C@@H]1[C@@H]2CC[C@]2(C)[C@@H](O)CC[C@@H]12 [2-ME, 2-methoxyestradiol]",66,partially suppressed erastin-induced cell death,,
"CC[C@@]1(O)C(=O)OCc2c1cc1n(c2=O)Cc2cc3ccccc3nc2-1 [camptothecin, reference compound]",,,degraded,percentage of cells in M1 region (Annexin V staining) [6]: 38%
"CN[C@@H]1C[C@H]2O[C@@](C)([C@@H]1OC)n1c3ccccc3c3c4c(c5c6ccccc6n2c5c31)C(=O)NC4 [staurosporine, reference compound]",,,cleaved from 110 kD to 85 kD,Cytochrome c release from mitochondria [8]: released
antimycin,51,partially suppressed erastin-induced cell death,,
